Source: patent publication US20250123267A1, “INHIBITORS OF MICROTUBULE POLYGLUTAMYLATION IN MITOSIS FOR USE AS A MEDICAMENT” (FUNDACIÓ CENTRE DE REGULACIÓ GENÒMICA, priority 2021, published 2025)

Legend:
Format in all cases: in vivo, Danio rerio
zebrafish embryos [1] = test: Chromosome segregation in blastula stage zebrafish embryos (live and fixed imaging)
Procedure: (§1) Morpholino antisense oligonucleotides were designed and purchased from Gene Tools, LLC. To inhibit ttll11 we used a blocking translation SEQ ID NO: 22 MO ([…]) and a standard control SEQ ID NO: 23 MO ([…]) as a negative control. We injected 2.8 ng of morpholino into one-cell stage embryos.
Zebrafish embryos at the sphere stage (2.5-4 hpf) were dechorionated and incubated overnight at RT shacking in the microtubule fixative solution (20). The MT-fixative was discarded, and the embryos were put in methanol at −20° C. overnight. After fixation was completed zebrafish embryos were transferred in a clean tube and washed 3 times during 5 min with tergitol at room temperature for rehydration. Embryos were then moved to a well of a 96-well plate and an overnight wash with the anti-autofluorescence buffer (PBS 1×, 100 mM NaBH4) was performed at RT gently shacking. Buffer in the well was changed with TBS 1× for 5 extensive washes.
Embryos underwent the blocking step with TBS 1× with 2% BSA for 30 minutes RT gently shacking. Anti-polyE (1.1 μg/ml, home-made) and -β-tubulin (clone E7; Hybridoma Bank at University of Iowa) primary antibodies were added both at 1:200 dilution and left ON at 4° C. gently shacking. […]
Fixed embryos were imaged in glass bottom Mattek dishes using a 63× oil-immersion 1.4 NA objective on a TCS SP5 inverted Leica confocal microscope. Laser intensity used changed through experiments according to the tubulin levels detected.
For zfTTLL11 localization experiments zebrafish eggs were fertilized, collected and microinjected with zfTTLL11 mRNA with a micromanipulator (M3301R, WPI (World precision instruments). The quantity injected are relative to the ones specified in “Morpholinos, mRNA synthesis and microinjection” section, according to de experiment. Embryos at sphere stage were manually dechorionated and moved in a tube containing low melting agarose at 42° C. diluted in TBS 1× and immediately in a Mattek dish with 7 mm diameter glass bottom and oriented with epithelial layer cells toward the glass slide before the agarose solidified. […]

zebrafish embryos [2] = test: Embryonic lethality of morpholino injected zebrafish embryos; conditions: first 4 hours of development
Procedure: as §1
(§2) All capped mRNAs were synthesized using mMessage mMachine SP6 (Ambion, AM1340M). For the rescue experiments, […] of ttll11 mRNA was injected together with the indicated MO. […] of E466G mRNA (ttll11 mutated version) was injected together with the indicated MO as a negative control of the rescue experiments. GFP-Ttll11 mRNA was injected into one-cell stage embryos to visualize protein localization.

zebrafish embryos [3] = test: Morphological zebrafish analysis at 36 hpf after morpholino injection
Procedure: as §1, §2
Zebrafish embryos at 36 hpf were anaesthetized with tricaine methane sulfonate (MS-222, Sigma Aldrich) The morphological phenotype was evaluated on site with an Olympus SZX16 scope equipped with an Olympus DP73 camera. Representative images were analyzed with ImageJ.

[4] = 36 hpf, injected at one-cell stage

Substance: MO-1: blocking translation morpholino against zebrafish ttll11, SEQ ID NO: 22 (CGGCTGATTTGTTATCTCATCTAGG) (all phosphorodiamidate morpholino (PMO))
- embryos with at least one anaphase cell with a lagging chromosome (zebrafish embryos [1]; blastula stage, 4D time-lapse imaging): Most
- chromosome segregation fidelity in fixed embryos (zebrafish embryos [1]; fixed embryos, anaphase cells with lagging chromosomes): compromised
- cells with micronuclei (zebrafish embryos [1]; injected embryos): many cells with micronuclei
- embryonic lethality (zebrafish embryos [2]): increase of embryonic lethality
- phenotype Frequency Mild (%) (zebrafish embryos [3]; [4]): 28.6%
- phenotype Frequency Normal (%) (zebrafish embryos [3]; [4]): 14.3%
- phenotype Frequency Severe (%) (zebrafish embryos [3]; [4]): 57.1%
- embryos with developmental defects (zebrafish embryos [3]; injected embryos, mild tilted tails to gross abnormalities): 60%
